Data on two molecules can be found in patent publication US11064698B2, “Tetrazolinone compound and use thereof” (SUMITOMO CHEMICAL COMPANY, LIMITED, priority 2017, dated 2021).

Holding throughout (type): in vivo
Assay [1] has as its system diamondback moth (Plutella xylostella). Briefly: Control test against diamondback moth (Plutella xylostella). The conditions noted are these: 500 ppm active ingredient, sprayed on cabbage seedlings 20 mL/seedling, 2nd instar larvae, after 5 days, 25° C. On the procedure:
Next, a Test Example is used to show efficacy of the Present compound against pests. In the following Test Example, the test was carried out at 25° C. Test Example 1 Control test against diamondback moth (Plutella xylostella) The Present compound was formulated according to the process described in the Formulation Example 6 to obtain a formulation, and water containing a spreader (0.03% by volume) was added thereto to prepare a diluted solution containing 500 ppm of the active ingredient. Cabbage (Brassicae oleracea) seedlings (on the developmental stage of the second to third true leaf) were planted in a container, and said diluted solution was sprayed into the leaves of the seedlings at a ratio of 20 mL/seedling. Thereafter, the stems and leaves of the seedlings were cut out, and the leaves were placed into a container lined with a filter paper. Approximately five the 2nd instar larvae of diamondback moth (Plutella xylostella) were released into the container. After 5 days, the number of the surviving insects was examined, and the controlling value was calculated by the following equation. […] Controlling value (%)={1−(Cb×Tai)/(Cai×Tb)}×100 wherein the symbols in the equation represent the following meanings. […]

The test system of assay [2] is Septoria leaf blotch (Septoria tritici) on wheat. Briefly: Preventive efficacy by foliage application against Septoria leaf blotch on wheat.
The subject of assay [3] is net blotch (Pyrenophora teres) on barley. Briefly: Preventive efficacy by foliage application against net blotch on barley.

Molecules are shown by their SMILES.

With `Cc1cccc(-n2nnn(C)c2=O)c1CN1C(=O)CCN1c1ccc(Cl)cc1` [Present compound], the “Controlling value (control effects)” value in assay [1] came to 100%.

Consider `Cc1cccc(-n2nnn(C)c2=O)c1COC1=NN(c2ccc(Cl)cc2)CC1` [compound represented by formula (4)], for which, in assay [2], the “preventive efficacy against Septoria leaf blotch (Septoria tritici)” value is reported as “showed preventive efficacy”. Further, in assay [3], the “preventive efficacy against net blotch (Pyrenophora teres)” value was “showed preventive efficacy”.
